From patent US11414429B2, “Compound or pharmaceutically acceptable salt thereof” (RIKEN, priority 2016, dated 2022) come the findings set out here.

The target in assay [1] is T1, tankyrase 2 (TNKS 2) (Homo sapiens, UniProt Q9H2K2).
T1 construct: 613-1, 116aa; made in house; host or cells: cell-free protein synthesis system
Put plainly: Tankyrase inhibitory activity test (ELISA, self-polyADP ribosylation), tankyrase 2. The class given is biochemical. The settings on record: tankyrase 2, ELISA, self-polyADP ribosylation; read-out: TNKS2 inhibitory activity (IC50 class). The procedure, abridged:
(§1)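 Flag-tagged TNKS1 (1,024-1,327aa, SAM+PARP) and TNKS2 (613-1,116aa, ANK5+SAM+PARP) were made cell-free and captured overnight at 4 °C on anti-FLAG M2 plates. After 10 min compound preincubation in Tris pH 8.0/MgCl2/DTT buffer, NAD (225 μM) plus biotin-NAD (25 μM) solution was added for 45 min at 30 °C. Auto-PARylation was read by streptavidin-HRP chemiluminescence, giving IC50 from residual activity.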
For orientation: An ELISA detects its analyte on a solid surface through an enzyme-linked reagent.

Assay [2] relates to human colorectal cancer cell line, COLO-320DM. Description: Cell proliferation inhibitory activity test (Celltiter-Glo Luminescent Cell Viability Assay). Format: cell-based. The following applies: COLO-320DM cells, 96 hours, read-out: COLO-320 DM cell proliferation inhibitory activity (GI50 class). In a few lines: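 Cells grown in RPMI-1640 with 10% FBS and 2 mM glutamine, seeded overnight, then exposed to compound (1% DMSO final) for 96 h at 37° C., 5% CO2. Viability read by ATP luminescence; GI50 is the concentration reducing cell growth to 50% of DMSO control.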
(Cellular ATP, detected with luciferase, serves as a proxy for viable cell number.)

Assay [3] deals with T2, tankyrase 1 (TNKS 1) (Homo sapiens, UniProt O95271).
T2 construct: 1,024-1,327aa; made in house; host or cells: cell-free protein synthesis system
Put plainly: Tankyrase inhibitory activity test (ELISA, self-polyADP ribosylation), tankyrase 1. Format: biochemical. The settings on record: tankyrase 1, ELISA, self-polyADP ribosylation; read-out: TNKS1 inhibitory activity (IC50 class). In a few lines:
as §1

The structures appear in SMILES notation.

T2 sequence (O95271 1024-1327): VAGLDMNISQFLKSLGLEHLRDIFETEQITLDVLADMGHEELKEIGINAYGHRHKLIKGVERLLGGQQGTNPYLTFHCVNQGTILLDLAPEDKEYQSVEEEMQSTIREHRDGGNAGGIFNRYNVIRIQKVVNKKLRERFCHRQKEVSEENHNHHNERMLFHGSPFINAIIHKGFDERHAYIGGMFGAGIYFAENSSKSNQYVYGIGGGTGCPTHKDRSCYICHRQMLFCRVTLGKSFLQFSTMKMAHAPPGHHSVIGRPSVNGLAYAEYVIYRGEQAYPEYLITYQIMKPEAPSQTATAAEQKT
T1 sequence (Q9H2K2 613-1166): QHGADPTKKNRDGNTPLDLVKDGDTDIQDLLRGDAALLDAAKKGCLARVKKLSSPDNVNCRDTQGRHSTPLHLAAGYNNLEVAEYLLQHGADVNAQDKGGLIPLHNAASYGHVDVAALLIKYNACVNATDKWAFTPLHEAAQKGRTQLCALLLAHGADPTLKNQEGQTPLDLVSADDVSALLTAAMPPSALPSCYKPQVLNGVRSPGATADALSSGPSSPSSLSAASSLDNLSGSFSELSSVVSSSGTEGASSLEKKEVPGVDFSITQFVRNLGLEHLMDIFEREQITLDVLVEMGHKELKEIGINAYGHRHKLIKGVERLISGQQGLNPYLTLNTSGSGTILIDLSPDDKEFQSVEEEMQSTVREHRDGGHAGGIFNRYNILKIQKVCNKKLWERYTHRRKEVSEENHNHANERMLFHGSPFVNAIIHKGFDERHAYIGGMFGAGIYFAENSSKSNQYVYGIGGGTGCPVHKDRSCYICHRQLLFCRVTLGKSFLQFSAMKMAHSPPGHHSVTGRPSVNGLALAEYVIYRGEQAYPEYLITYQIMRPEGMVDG

Usually IC50 stands for the concentration that inhibits the measured activity by half. Consider `CN1CCN(CCOc2cc(F)c3c(c2)N(C)C(=O)C32CCN(c3nc4c(c(=O)[nH]3)CCCN4C)CC2)CC1` [Example 362, 4-fluoro-1-methyl-1′-(8-methyl-4-oxo-3,4,5,6,7,8-hexahydropy-rido[2,3-d]pyrimidin-2-yl)-6-[2-(4-methyl-piperazin-1-yl)ethoxy] spiro[indoline-3,4′-piperidin]-2-one], for which the IC50 in assay [1] and in assay [3] was less than 0.02 µM in each case. In addition, the GI50 in assay [2] lay in the range of 0.1 to 0.6 µM.

On to `CN1CCCc2c1nc(N1CCC3(CC1)C(=O)N(C)c1cc(OCCCN4CCOCC4)cc(F)c13)[nH]c2=O` [Example 365, 4-fluoro-1-methyl-1′-(8-methyl-4-oxo-3,4,5,6,7,8-hexahydro-pyrido[2,3-d]pyrimidin-2-yl)-6-(3-morpholino-propoxy) spiro[indoline-3,4′-piperidin]-2-one], for which the IC50 in assay [1] and in assay [3] was less than 0.02 µM in each case. Besides, the GI50 in assay [2] was 0.6 to 1 µM.

On to `COCCOc1cc(F)c2c(c1)N(C)C(=O)C21CCN(c2nc3c(c(=O)[nH]2)CCCN3C)CC1` [Example 366, 4-fluoro-6-(2-methoxy)-1-methyl-1′-(8-methyl-4-oxo-3,4,5,6,7,8-hexahydropy-rido[2,3-d]pyrimidin-2-yl)spiro [indoline-3,4′-piperidin]-2-one], for which the IC50 in assay [1] and in assay [3] was less than 0.02 µM in each case. Moreover, the GI50 in assay [2] lay within 0.1 to 0.6 µM.

As for `CN1CCCc2c1nc(N1CCC3(CC1)C(=O)N(C)c1cc(OCCCN4CCCC4)cc(F)c13)[nH]c2=O` [Example 367, 4-fluoro-1-methyl-1′-(8-methyl-4-oxo-3,4,5,6,7,8-hexahydropy-rido[2,3-d]pyrimidin-2-yl)-6-[3-(pyrrolidin-1-yl)propoxy] spiro[indoline-3,4′-piperidin]-2-one], the IC50 in assay [1] and in assay [3] was less than 0.02 µM each time. In addition, the GI50 in assay [2] was in the range of 0.1 to 0.6 µM.

Take `[2H]C([2H])([2H])N1CCCc2c1nc(N1CCC3(CC1)C(=O)N(CCO)c1cc(F)cc(F)c13)[nH]c2=O` [Example 370, 4,6-difluoro-1-(2-hydroxyethyl)-1′-[8-(methyl-d3)-4-oxo-3,4,5,6,7,8-hexahydro-pyrido [2,3-d]pyrimidin-2-yl] spiro[in-doline-3,4′-piperidin]-2-one]: the IC50 in assay [1] and in assay [3] was less than 0.02 µM in each case. Also, in assay [2], the GI50 fell in the range of 0.1 to 0.6 µM.

As for `COc1cc(F)c2c(c1)N(C)C(=O)C21CCN(c2nc3c(c(=O)[nH]2)CCCN3C)CC1` [Example 372, 4-fluoro-6-methoxy-1-methyl-1′-(8-methyl-4-oxo-3,4,5,6,7,8-hexahydropyrido [2,3-d]pyrimidin-2-yl) spiro[indoline-3,4'-piperidin]-2-one], the IC50 in assay [1] and in assay [3] was less than 0.02 µM each time. In addition, the GI50 in assay [2] was 0.1 to 0.6 µM.

On to `COc1cc(F)c2c(c1)N(CCO)C(=O)C21CCN(c2nc3c(c(=O)[nH]2)CCCN3C)CC1` [Example 373, 4-fluoro-1-(2-hydroxy-ethyl)-6-methoxy-1′-(8-methyl-4-oxo-3,4,5,6,7,8-hexahydropyrido [2,3-d]pyrimidin-2-yl) spiro[indoline-3,4′-piperidin]-2-one], for which the IC50 in assay [1] and in assay [3] was less than 0.02 µM in each case. Besides, the GI50 in assay [2] was less than 0.1 µM.

As for `CN1CCCc2c1nc(N1CCC3(CC1)C(=O)N(CC#N)c1cc(F)cc(F)c13)[nH]c2=O` [Example 374, 2-(4,6-difluoro-1′-(8-methyl-4-oxo-3,4,5,6,7,8-hexahydropyrido [2,3-d]pyrimidin-2-yl)-2-oxospiro[indoline-3,4′-piperidin]-1-yl)acetonitrile], the IC50 in assay [1] and in assay [3] was less than 0.02 µM throughout. In assay [2], the GI50 was less than 0.1 µM.

As for `CN(C)CCOc1cc(Cl)c2c(c1)N(C)C(=O)C21CCN(c2nc3c(c(=O)[nH]2)CCCN3C)CC1` [Example 375, 4-chloro-6-[2-(dimethylamino)ethoxy]-1-methyl-1′-(8-methyl-4-oxo-3,4,5,6,7,8-hexahydro-pyrido[2,3-d]pyrimidin-2-yl) spiro[indoline-3,4′-piperidin]-2-one], the IC50 in assay [1] and in assay [3] was less than 0.02 µM in each case. The GI50 in assay [2] is 0.1 to 0.6 µM.

As for `CN1CCCc2c1nc(N1CCC3(CC1)C(=O)N(C)c1cc(OCCN4CCCCC4)cc(Cl)c13)[nH]c2=O` [Example 376, 4-chloro-1-methyl-1′-(8-methyl-4-oxo-3,4,5,6,7,8-hexahydropy-rido[2,3-d]pyrimidin-2-yl)-6-(2-(piperidin-1-yl)ethoxy)spiro [indoline-3,4′-piperidin]-2-one], the IC50 in assay [1] and in assay [3] was less than 0.02 µM in each case. The GI50 in assay [2] was 0.1 to 0.6 µM.

`CN1CCCc2c1nc(N1CCC3(CC1)C(=O)N(C)c1cc(OCCN4CCOCC4)cc(Cl)c13)[nH]c2=O` [Example 377, 4-chloro-1-methyl-1′-(8-methyl-4-oxo-3,4,5,6,7,8-hexahydropy-rido[2,3-d]pyrimidin-2-yl)-6-(2-morpholino-ethoxy) spiro[indoline-3,4′-piperidin]-2-one]: the IC50 in assay [1] and in assay [3] was less than 0.02 µM each time. Also, the GI50 in assay [2] lay within 0.1 to 0.6 µM.

Consider `CN1CCCc2c1nc(N1CCC3(CC1)C(=O)N(C)c1cc(OCCN4CCS(=O)(=O)CC4)cc(Cl)c13)[nH]c2=O` [Example 378, 4-chloro-6-[2-(1,1-dioxi-dothio-morpholino)ethoxy]-1-methyl-1′-(8-methyl-4-oxo-3,4,5,6,7,8-hexahydropyrido [2,3-d]pyrimidin-2-yl)spiro [indoline-3,4′-piperidin]-2-one], for which the IC50 in assay [1] and in assay [3] was less than 0.02 µM in each case. In addition, the GI50 in assay [2] fell in the range of 0.6 to 1 µM.

As for `COc1cc(F)c2c(c1)N(CC#N)C(=O)C21CCN(c2nc3c(c(=O)[nH]2)CCCN3C)CC1` [Example 379, 2-[4-fluoro-6-methoxy-1′-(8-methyl-4-oxo-3,4,5,6,7,8-hexahydropyrido [2,3-d]pyrimidin-2-yl)-2-oxospiro [indoline-3,4′-piperidin]-1-yl] acetonitrile], the IC50 in assay [1] and in assay [3] was less than 0.02 µM each time. Further, the GI50 in assay [2] is less than 0.1 µM.

For the compound `CN1CCC(Oc2cc(F)c3c(c2)N(C)C(=O)C32CCN(c3nc4c(c(=O)[nH]3)CCCN4C)CC2)CC1` [Example 380, 4-fluoro-1-methyl-1′-(8-methyl-4-oxo-3,4,5,6,7,8-hexahydropyrido [2,3-d]pyrimidin-2-yl)-6-[(1-methylpiperidin-4-yl)oxy]spiro [indoline-3,4′-piperidin]-2-one], the IC50 in assay [1] and in assay [3] was less than 0.02 µM throughout. Besides, the GI50 in assay [2] lay within 0.6 to 1 µM.

As to `CN1CCCc2c1nc(N1CCC3(CC1)C(=O)N(CCO)c1cc(OCCO)cc(F)c13)[nH]c2=O` [Example 381, 4-fluoro-6-(2-hydroxy-thoxy)-1-(2-hydroxyethyl)-1′-(8-methyl-4-oxo-3,4,5,6,7,8-hexahydropyrido [2,3-d]pyrimidin-2-yl)spiro [indoline-3,4′-piperidin]-2-one], the IC50 in assay [1] and in assay [3] was less than 0.02 µM throughout. Moreover, the GI50 in assay [2] lay within 0.1 to 0.6 µM.

With `CCN1CCCc2c1nc(N1CCC3(CC1)C(=O)N(CCO)c1cc(F)cc(F)c13)[nH]c2=O` [Example 382, 1′-(8-ethyl-4-oxo-3,4,5,6,7-hexahydropyrido-[2,3-d]pyrimidin-2-yl)-4,6-difluoro-1-(2-hy-droxyethyl)spiro [indoline-3,4′-piperidin]-2-one], the IC50 in assay [1] and in assay [3] was less than 0.02 µM each time. The GI50 in assay [2] is 0.1 to 0.6 µM.

As to `COCCOc1cc(F)c2c(c1)N(CCO)C(=O)C21CCN(c2nc3c(c(=O)[nH]2)CCCN3C)CC1` [Example 383, 4-fluoro-1-(2-hydroxy-ethyl)-6-(2-methoxyethoxy-1′-(8-methyl-4-oxo-3,4,5,6,7,8-hexahydropyrido [2,3-d]pyrimidin-2-yl))spiro [indoline-3,4′-piperidin]-2-one], the IC50 in assay [1] and in assay [3] was less than 0.02 µM throughout. Further, the GI50 in assay [2] lay in the range of 0.1 to 0.6 µM.

Consider `CN1CCCc2c1nc(N1CCC3(CC1)C(=O)N(CCO)c1cc(O)cc(F)c13)[nH]c2=O` [Example 384, 4-fluoro-6-hydroxy-1-(2-hydroxyethyl)-1′-(8-methyl-4-oxo-3,4,5,6,7,8-hexahydropyrido [2,3-d]pyrimidin-2-yl) spiro[indoline-3,4′-piperidin]-2-one], for which the half-maximal inhibitory concentration (IC50) in assay [1] and in assay [3] was less than 0.02 µM in each case. Moreover, in assay [2], the GI50 was 0.1 to 0.6 µM.

As to `CN1CCCc2c1nc(N1CCC3(CC1)C(=O)N(CCO)c1cc(OCCN4CCOCC4)cc(F)c13)[nH]c2=O` [Example 386, 4-fluoro-1-(2-hydroxy-ethyl)-1′-(8-methyl-4-oxo-3,4,5,6,7,8-hexahydropyrido [2,3-d]pyrimidin-2-yl)-6-(2-morpholino-ethoxy)spiro [indoline-3,4′-piperidin]-2-one], the IC50 in assay [1] and in assay [3] was less than 0.02 µM throughout. Besides, the GI50 in assay [2] fell in the range of 0.6 to 1 µM.
